The record followed here is the supplement of paper PMC11061612.

Assay in all cases: Bliss excess, mean over the matrix (fraction); higher = more synergy
The test system of test [1] is 786-0 (Kidney Carcinoma). Put shortly: (§1)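 Bliss excess equals the observed combination effect minus the expected value EA + EB − EA·EB, where EA and EB are the effects of each agent alone. Combination Emax is the second-highest inhibition within the matrix. Inhibition was scaled from CellTiter-Glo 2.0 luminescence, with 0 set by vehicle wells and 1 by blank wells, after 72 hours of two-drug dosing of cells plated in 1536-well plates.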

The test system of test [2] is BALL-1 (B-Lymphoblastic Leukemia). A digest of the protocol: as §1
Test [3] concerns Becker (Low Grade Glioma). A digest of the protocol:
as §1

Test [4] has as its system CHL-1 (Melanoma). Put shortly: as §1
Test [5] deals with CML-T1 (Chronic Myelogenous Leukemia). Put shortly: as §1
Test [6] concerns COLO-684 (Endometrial Carcinoma). Put shortly:
as §1

Test [7] has as its system Calu-6 (Non-Small Cell Lung Carcinoma). A digest of the protocol: as §1
Test [8] deals with ES-2 (Ovarian Carcinoma). A digest of the protocol: as §1
Test [9] relates to FLO-1 (Esophageal Adenocarcinoma). Put shortly:
as §1

For test [10], the system named is HTC-C3 (Thyroid Gland Carcinoma). A digest of the protocol:
as §1

The subject of test [11] is LAMA-84 (Chronic Myelogenous Leukemia). Put shortly: as §1
Test [12] has as its system LOUCY (T-Lymphoblastic Leukemia). Put shortly: as §1
Test [13] concerns NCI-H1563 (Lung Adenocarcinoma). A digest of the protocol:
as §1

For test [14], the system named is NCI-H1623 (Lung Adenocarcinoma). Put shortly: as §1
Test [15] relates to NCI-H196 (Small Cell Lung Carcinoma). A digest of the protocol: as §1
The subject of test [16] is NCI-H810 (Non-Small Cell Lung Carcinoma). Put shortly: as §1
The test system of test [17] is PC-14 (Lung Adenocarcinoma). A digest of the protocol:
as §1

Test [18] relates to RERF-LC-KJ (Lung Adenocarcinoma). A digest of the protocol: as §1
Test [19] has as its system RL95-2 (Endometrial Carcinoma). A digest of the protocol:
as §1

The subject of test [20] is SW684 (Other Solid Carcinomas). A digest of the protocol: as §1

Each structure is given as a SMILES string.

Take `CN(CCO)CC[C@H](CSc1ccccc1)Nc1ccc(S(=O)(=O)NC(=O)c2ccc(N3CCC([C@@H](O)c4ccccc4-c4ccc(Cl)cc4)CC3)cc2)cc1S(=O)(=O)C(F)(F)F` [AZD4320] + C=CCn1c(=O)c2cnc(Nc3ccc(N4CCN(C)CC4)cc3)nc2n1-c1cccc(C(C)(C)O)n1 [AZD1775] (first compound max 1 µM, partner max 1 µM): the Bliss excess is -0.0685 in [1]; 0.0065 in [2]; 0.0046 in test [3]; 0.0509 in test [4]; -0.0082 in [5]; -0.0301 in [6]. Moreover, the Bliss excess amounted to 0.0019 in test [7]; 0.0065 in test [8]; 0.0293 in test [9]; 0.08 in test [10]; 0.083 in test [11]; 0.002 in test [12]. Also, the Bliss excess in test [13] is -0.0024; in test [14] it was 0.0318; in [15], 0.0268; in [16] it was 0.0105; in test [17], 0.0069; in [18], -0.0076. The Bliss excess in test [19] was 0.006; in [20] it was -0.0416.

In the case of `C[C@@H]1COCCN1c1cc(C2([S@](C)(=N)=O)CC2)nc(-c2ccnc3[nH]ccc23)n1` [AZD6738] + O=C(c1cc(Cc2n[nH]c(=O)c3ccccc23)ccc1F)N1CCN(C(=O)C2CC2)CC1 [Olaparib] (first compound max 10 µM, 7x7, partner max 10 µM), the Bliss excess in [1] was 0.0473; in test [2] it was -0.0204; in [3] it was -0.0077; in test [4] it was -0.0498; in test [5] it was -0.0182; in test [6], -0.109. The Bliss excess in [7] is -0.0679; in test [8], -0.0136; in [9], -0.0348; in test [10], 0.0226; in test [11], 0.0233; in test [12], -0.0284. Further, the Bliss excess in [13] is -0.0116; in [14], -0.0325; in test [15] it was 0.0275; in [16], -0.008; in [17], 0.0132; in test [18], 0.0228. For the same compound, the Bliss excess was 0.0105 in test [19] and -0.0144 in test [20].

With `CN(CCO)CC[C@H](CSc1ccccc1)Nc1ccc(S(=O)(=O)NC(=O)c2ccc(N3CCC([C@@H](O)c4ccccc4-c4ccc(Cl)cc4)CC3)cc2)cc1S(=O)(=O)C(F)(F)F` [AZD4320] + CN(C)CCCOc1ccc(-c2ccc3ncc4c(c3c2)n(C2CCOCC2)c(=O)n4C)cn1 [AZD0156] (first compound max 1 µM, 7x7, partner max 1 µM), the Bliss excess in test [1] was -0.0503; in [2] it was -0.0185; in [3] it was -0.035; in test [4], -0.0242; in test [5], 0.013; in test [6] it was -0.0218. The Bliss excess in [7] is -0.0156; in test [8] it was -0.0259; in test [9] it was 0.0007; in [10], -0.0185; in [11], -0.0089; in test [12] it was -0.006. The Bliss excess was -0.0496 in test [13]; -0.071 in test [14]; -0.0414 in [15]; -0.0328 in test [16]; -0.019 in [17]; -0.0413 in test [18]. Moreover, the figures for the Bliss excess in test [19] and in test [20] were -0.0408 and -0.0641, respectively.

For `CS(=O)(=O)CCNCc1ccc(-c2ccc3ncnc(Nc4ccc(OCc5cccc(F)c5)c(Cl)c4)c3c2)o1` [Lapatinib] + C[C@@H](Oc1cc(-c2cnn(C3CCNCC3)c2)cnc1N)c1c(Cl)ccc(F)c1Cl [Crizotinib] (first compound max 10 µM, 7x7, partner max 10 µM), the Bliss excess was -0.0666 in [1]; 0.0146 in [2]; -0.0387 in [3]; -0.0393 in [4]; -0.106 in test [5]; -0.0364 in test [6]. The Bliss excess in [7] was 0.0122; in test [8], -0.0565; in [9], -0.0535; in test [10], 0.0215; in [11] it was 0.001; in [12], -0.102. The Bliss excess in test [13] was 0.0087; in [14], 0.0555; in test [15] it was -0.0564; in test [16] it was -0.0386; in test [17], -0.028; in test [18] it was 0.074. Further, the figures for the Bliss excess in test [19] and in [20] were -0.0535 and -0.0389, respectively.

For `NC1(C(=O)N[C@@H](CCO)c2ccc(Cl)cc2)CCN(c2ncnc3[nH]ccc23)CC1` [Capivasertib] + CCN(CCO)CCCOc1ccc2c(Nc3cc(CC(=O)Nc4cccc(F)c4)[nH]n3)ncnc2c1 [AZD2811] (first compound max 10 µM, 7x7, partner max 1 µM), the Bliss excess was -0.0352 in test [1]; 0.0356 in test [2]; -0.0136 in test [3]; -0.0092 in test [4]; -0.0597 in test [5]; 0.0272 in test [6]. Besides, the Bliss excess in test [7] was -0.0009; in [8], -0.0018; in test [9], -0.0049; in test [10], -0.015; in [11], 0.0341; in [12], -0.104. Besides, the Bliss excess in [13] was 0.0242; in [14], 0.0004; in test [15] it was -0.0276; in [16] it was -0.0195; in test [17], 0.028; in test [18], -0.0135. Besides, the Bliss excess in test [19] is -0.0051; in [20], -0.0532.

In the case of `CN(CCO)CC[C@H](CSc1ccccc1)Nc1ccc(S(=O)(=O)NC(=O)c2ccc(N3CCC([C@@H](O)c4ccccc4-c4ccc(Cl)cc4)CC3)cc2)cc1S(=O)(=O)C(F)(F)F` [AZD4320] + C[C@@H]1COCCN1C2=NC(=NC(=C2)C3(CC3)[S@](=N)(=O)C)C4=C5C=CNC5=NC=C4 [AZD6738] (first compound max 1 µM, 7x7, partner max 10 µM), the Bliss excess in test [1] was -0.0263; in test [2], 0.0096; in test [3] it was -0.0186; in test [4], 0.0607; in test [5], 0.0149; in [6] it was -0.0589. The Bliss excess was -0.0258 in test [7]; -0.0061 in test [8]; -0.0574 in [9]; -0.0305 in [10]; -0.0093 in test [11]; -0.0092 in test [12]. The Bliss excess is 0.0051 in [13]; -0.0101 in test [14]; -0.0112 in test [15]; -0.0762 in test [16]; -0.0133 in test [17]; -0.0377 in [18]. For the same compound, the figures for the Bliss excess in [19] and in test [20] were -0.0163 and -0.0548, respectively.
